For data set [1], the target named is T1, 5-HT M-receptor (Oryctolagus cuniculus, UniProt A0A5F9C9J3).
T1 construct: determining their pA2 values in the isolated rabbit heart; from tissue; host or cells: isolated rabbit heart (receptor on the cardiac neurones)
T1 sequence (A0A5F9C9J3 1-494): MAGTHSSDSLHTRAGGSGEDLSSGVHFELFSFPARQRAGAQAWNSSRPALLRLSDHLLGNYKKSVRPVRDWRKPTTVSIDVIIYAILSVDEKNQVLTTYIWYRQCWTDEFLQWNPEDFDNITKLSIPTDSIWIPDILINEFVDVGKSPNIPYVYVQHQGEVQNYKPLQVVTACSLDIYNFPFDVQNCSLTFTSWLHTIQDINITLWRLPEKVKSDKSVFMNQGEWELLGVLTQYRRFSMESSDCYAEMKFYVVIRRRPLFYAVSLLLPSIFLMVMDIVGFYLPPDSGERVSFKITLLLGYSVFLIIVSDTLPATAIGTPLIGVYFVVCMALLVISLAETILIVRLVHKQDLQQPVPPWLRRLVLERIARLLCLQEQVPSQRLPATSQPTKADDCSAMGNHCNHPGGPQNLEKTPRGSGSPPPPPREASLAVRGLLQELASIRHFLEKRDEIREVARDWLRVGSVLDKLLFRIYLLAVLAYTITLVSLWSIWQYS
The conditions noted are these: cited from earlier work.

In a further data set the test system is acute migraine attack. The following applies: slow intravenous injection, 10 mg; J. B. Hughes, Med. J. Aust. 1977; cited from earlier work.
A short description of another data set: LD50 in the mouse. It counts as in vivo. The conditions noted are these: in vivo, mouse.
Another data set concerns mouse. In words: LD50 in the mouse. The following applies: as shown by LD50 values in the mouse and rat. It counts as in vivo.
The subject of data set [2] is guinea-pig ileum. In words: Inhibition of standard response to histamine, guinea-pig ileum. It counts as cell-based. The following applies: Cavia porcellus, agonist histamine, read-out: Concentration to inhibit standard response to stimulants by 50% (IC50). The text has this:
(§1) A selection of classical in vitro pharmacological test preparations (rat uterus, rat fundus, guinea-pig ileum, guinea-pig taenia caeci) were set up according to well-established procedures (see "Pharmacological Experiments on Isolated Preparations" Staff of the Department of Pharmacology, University of Edinburgh, Livingstone, Edinburgh 1970). Various spasmogens were used to elicit contraction of these tissues though mechanisms other than the 5-HT "M" receptor. The concentrations of tropyl 3,5-dimethoxybenzoate (A), tropyl 3,5-dimethylbenzoate (B) and tropyl 3,5-dichlorobenzoate (C) which reduced the effects of a submaximal dose of agonist by 50% were determined (IC50). The results are set forth in Table VI below in which the compounds are identified by the reference letters used above.

In data set [3] the test system is rat uterus. In words: Inhibition of standard response to oxytocin, rat uterus. In kind it is cell-based. The following applies: agonist oxytocin, read-out: Concentration to inhibit standard response to stimulants by 50% (IC50).
Description: as §1

A short description of another data set: LD50 in the rat. The following applies: in vivo, iv.
Data set [4] addresses T2, rabbit heart (5-HT M receptor) (Oryctolagus cuniculus, UniProt A0A5F9C9J3).
T2 construct: RABBIT HEART; from tissue; host or cells: rabbit heart
T2 sequence (A0A5F9C9J3 1-494): T1 sequence (A0A5F9C9J3 1-494)
The data set is described as follows: Inhibition of standard response to 5-HT, rabbit heart. In kind it is cell-based. The protocol:
(§2) The activity of the compounds against 5-HT can be assessed by determining their pA2 values in the isolated rabbit heart as described by J. R. Fozard et al, Eur. J. Pharmacol., 59, 195-210 (1979). In the method described, the molar concentration of antagonist which reduces the effects of twice the ED50 of 5-HT to that of the ED50 in the absence of antagonist is determined. The pA2 value is the negative logarithm of said molar concentrations.
as §1

For data set [5], the system named is rat fundus. In words: Inhibition of standard response to acetylcholine, rat fundus. It counts as cell-based. The conditions noted are these: agonist acetylcholine, read-out: Concentration to inhibit standard response to stimulants by 50% (IC50).
Description: as §1

Data set [6] has as its target T1, 5-HT M-receptor. The data set is described as follows: pA2 against 5-HT in isolated rabbit heart. It counts as cell-based. On the procedure:
as §2

Data set [7] concerns Von Bezold-Jarisch Reflex (5-HT M-receptor). In words: Antagonism of the Von Bezold-Jarisch reflex evoked by 5-HT in the anaesthetized rat. It counts as in vivo, rat (male Sprague-Dawley). The conditions noted are these: comparison in words, i.v. The text has this:
The activity of these compounds against 5-HT can be assessed in vivo by measurement of the effect of the compound on the Von Bezold-Jarisch Reflex induced by 5-HT injected intravenously into the rat (A. S. Paintal, Physiol. Rev. 53, 159-227, 1973). The transient caridac slowing arises from an increased afferent vagus activity arising from stimulation by 5-HT of sensory afferent fibres in and around the heart (see Example 3).
Antagonism of the Von Bezold-Jarisch reflex evoked by 5-HT in the anaesthetized rat was measured for tropyl 3,5-dimethoxybenzoate (A), tropyl 3,5-dimethylbenzoate (B) and tropyl 3,5-dichlorobenzoate (C) using the following method.
Male Sprague-Dawley rats weighing 250-300 g are anaesthetized with urethane, 1.25 g/kg injected intraperitoneally and set up for recording blood pressure and heart rate as described in J. R. Fozard et al, J. Cardiovas. Pharmacol. 2, 229-245 (1980). A submaximal dose of 5-HT ([…]) is given repeatedly into the cannulated jugular vein and changes in heart rate are quantified. Antagonists are given intravenously and the doses required to just inhibit the response to 5-HT (threshold dose) or to inhibit the response to 5-HT by 50% (ED50) are determined.

Data set [8] deals with rat uterus. The data set is described as follows: Inhibition of standard response to 5-HT, rat uterus. In kind it is cell-based. The conditions noted are these: agonist 5-HT, read-out: Concentration to inhibit standard response to stimulants by 50% (IC50).
Description: as §1

A further data set concerns guinea-pig taenia caeci. In words: Inhibition of standard response to calcium, guinea-pig taenia caeci. The following applies: Cavia porcellus; guinea-pig taenia caeci in potassium-depolarized Tyrode solution, agonist calcium; read-out: Concentration to inhibit standard response to stimulants by 50% (IC50). It counts as cell-based.
Description: as §1
*In potassiumdepolarized Tyrode solution

Data set [9] has as its system guinea-pig ileum. The data set is described as follows: Inhibition of standard response to acetylcholine, guinea-pig ileum. It counts as cell-based. The conditions noted are these: Cavia porcellus, agonist acetylcholine, read-out: Concentration to inhibit standard response to stimulants by 50% (IC50).
Description: as §1

The test system of data set [10] is migraine or cluster headaches. In words: Pilot study of intravenous tropyl 3,5-dichlorobenzoate in patients with migraine or cluster headaches. In kind it is in vivo. From the text:
Pilot Study of Tolerance To Intravenous Tropyl 3,5-Dichlorobenzoate in Patients With Migraine or Cluster Headaches
This study was designed to evaluate tolerance and, if possible, efficacy of intravenous tropyl 3,5-dichlorobenzoate in patients with migraine or cluster headaches.
Eight patients (4 males), aged 27-47 with known headache disorders of 5-27 years duration (see Table VII) took part in the study but Patients Nos. 2 and 4 had cluster not migraine headaches and the cause of headaches in Patient No. 6 was unknown.
Tropyl 3,5-dichlorobenzoate was provided as a sterile solution, 1 mg/ml; the desired dose to be diluted in 10 ml normal saline for intravenous infusion over a 2 minute period. No other therapy was taken for at least 24 hours before treatment or during the course of therapy.

The subject of data set [11] is rat fundus. The data set is described as follows: Inhibition of standard response to 5-HT, rat fundus. It counts as cell-based. The conditions noted are these: agonist 5-HT, read-out: Concentration to inhibit standard response to stimulants by 50% (IC50).
Description: as §1

Data set [12] deals with guinea-pig ileum. The data set is described as follows: Inhibition of standard response to carbachol, guinea-pig ileum. It counts as cell-based. The following applies: Cavia porcellus, carbachol agonist instead of acetylcholine, read-out: Concentration to inhibit standard response to stimulants by 50% (IC50).
Description: as §1
**Carbachol agonist instead of acetylcholine

[13] abbreviates: Patient 6, i.v., after 4 mg dose.
Where [14] appears, read: Patient 8, i.v., first day of 9 mg.

Read-outs that look alike come from different tables or passages of the source.

One may read the LD50 as the dose at which mortality reaches 50%. Lower therefore signals greater toxicity.

With `CCN(CC)CCNC(=O)c1cc(Cl)c(N)cc1OC` [metoclopramide], the “potency as 5-HT M-receptor antagonist” value on 5-HT M-receptor [1] (literature) is listed as “potent 5-HT M-receptor antagonist”. For the same molecule, the “pA2 value (5-HT)” value at 5-HT M-receptor [1] (reported by J. R. Fozard et al, Eur. J. Pharmacol. 1979 / 1978) is 7.2. In addition, the “relief of acute migraine attack” value in the data set on acute migraine attack was “immediate relief of acute migraine attack”.

As to `CN1[C@@H]2CC[C@H]1C[C@@H](OC(=O)c1cc(Cl)cc(Cl)c1)C2` [tropyl 3,5-dichlorobenzoate], the LD50 worked out at 32 mg/kg in the data set “LD50 in the mouse” (ip), 24 mg/kg in “LD50 in the mouse” (iv), 90 mg/kg in the data set “LD50 in the mouse” (oral) and 14 mg/kg in the data set “LD50 in the rat”. The toxicity in words result in the data set on mouse is reported as “relatively non-toxic”. Further, the IC50 is 3.68 µM in the data set with guinea-pig ileum [2]; greater than 50.9 µM in the data set with rat uterus [3]; 0.00082 µM in [4]; 12.4 µM with rat fundus [5]; 25.4 µM in the data set on rat uterus [8]; 28.6 µM in the data set on guinea-pig taenia caeci. Further, the IC50 in the data set with guinea-pig ileum [9] was 8.05 µM; in the data set with rat fundus [11] it was greater than 50.9 µM. The Kb on 5-HT M-receptor [6] is 0.000501 µM. Further, the “potency relative to metoclopramide” value in data set [7] is “many times more potent than metoclopramide”. Besides, the response entry in [10] (Patient 1, i.v. 1 mg, then 1 hour later, 2 mg) is “no effect on headache or nausea”; in data set [10] (Patient 2 (cluster headache), i.v. 1 mg) it was “no effect”; in [10] (Patient 3, i.v. 3 mg) it was “no effect”; in data set [10] (Patient 4 (cluster headache), i.v. 3 mg), “no effect”; in data set [10] (Patient 5, i.v. 5 mg) it was “no effect”; in data set [10] (Patient 7, i.v. 3 mg × 1 day, 5 mg × 2 days, 7 mg × 1 day), “no effect”. Besides, the “period over which reduction in headache intensity lasted” value in data set [10] (Patient 6, i.v.) was 21/2. For the same molecule, the headache reduction result in data set [10] (Patient 6, i.v. 3 mg single doses) was “slight reduction in their bilateral headache”; in data set [10] (Patient 6, i.v. 4 mg bid), “further amelioration”. For the same molecule, in data set [10] (Patient 6, i.v. 5 mg bid × 2 days, then 6 mg bid × 11 days), the “response with increased doses” value is recorded as “no greater effect”. Moreover, the “duration of reduction of pain intensity” value in data set [10] (setting [13]) lay in the range of 4 to 8 h. Besides, in data set [10] (setting [13]), the “onset of reduction of pain intensity” value was no more than 30 min. For the same molecule, the “reduction of pain intensity” value in [10] (Patient 6, i.v., within 30 minutes after 4 mg dose) is 70-80%. In addition, the “return of headache to pretreatment intensity after stopping therapy” value in data set [10] (Patient 8, after stopping i.v. therapy) lay within 6 to 7 days. Further, in data set [10] (Patient 8, i.v. 3 mg), the reduction of pain result is recorded as “about 30%”. For the same molecule, the “response during increasing doses” value in data set [10] (Patient 8, i.v. 6 mg × 1 day, 7 mg × 2 days, 9 mg × 1 day) was “maintained during increasing doses”. Further, in data set [10] (setting [14]), the “episode of pain, nausea, vomiting and photophobia” value is on record as “single episode of pain”. Also, the “symptom return during treatment” value in [10] (setting [14]) is on record as “single episode of symptom return”. Besides, in data set [10] (Patient 8, i.v., first dose of 3 mg), the “symptoms (headache, nausea, vomiting, vertigo, photophobia)” value is reported as “decrease in all symptoms”. In addition, the “tolerance of initial dose” value in data set [10] (i.v., initial dose 1 mg) is recorded as “well tolerated”. Further, the “cumulative dose well tolerated” value in data set [10] (i.v., over 18 days) is given as no more than 177 mg. Moreover, the “dose administered without any signs of intolerance, daily” value in data set [10] (i.v., patients) is recorded as no more than 14 mg/day. Also, in data set [10] (i.v., repeated doses, patients with headaches), the “dose well tolerated, repeated doses” value was “up to 7 mg b.i.d”. For the same molecule, the “number of patients responding to repeated doses” value in [10] (repeated i.v. doses, marked diminution of headache and associated symptoms, of three patients) is on record as “two of the three patients”. Also, the “headache and associated symptoms” value in data set [10] (repeated i.v. doses, two of the three patients (Patients Nos. 6 and 8)) was “marked diminution of headache and associated symptoms”. Also, the “pain intensity and associated symptoms” value in data set [10] (some patients, i.v. doses of 3 mg or greater) is “pain intensity and associated symptoms were ameliorated”.

For `Cc1cc(C)cc(C(=O)O[C@H]2C[C@H]3CC[C@@H](C2)N3C)c1` [tropyl 3,5-dimethylbenzoate], the LD50 in the data set “LD50 in the mouse” (ip) is 47 mg/kg; in “LD50 in the mouse” (iv), 17 mg/kg; in “LD50 in the mouse” (oral), 116 mg/kg; in “LD50 in the rat” it was 9 mg/kg. The toxicity in words entry in the data set with mouse is “relatively non-toxic”. Moreover, the IC50 in data set [4] (rabbit heart, agonist 5-HT, read-out: Concentration to inhibit standard response to stimulants by 50% (IC50)) turned out to be 0.00103 µM; in the data set with guinea-pig taenia caeci, 34.2 µM; in the data set with guinea-pig ileum [12], 9.59 µM. Besides, the Kb on 5-HT M-receptor [6] (isolated rabbit heart, negative log of molar concentration of antagonist reducing effect of twice the ED50 of 5-HT to that of the ED50, read-out: pA2 5-HT (converted)) was 0.001 µM. Further, the “potency relative to metoclopramide” value in data set [7] is “many times more potent than metoclopramide”.

Source of the values: patent US4585866A, “Treatment of migraine with substituted tropyl benzoate derivatives” (Merrell Dow Pharmaceuticals Inc., priority 1984, dated 1986).
